Like-named read-outs stand apart in the source and are kept apart here.
What was measured:
CDK2/cyclin A2 = target: T1, CDK2/cyclin A2 (Homo sapiens, UniProt P24941); test: Human CDK2/cyclin A2 inhibitory activity (QS S Assist CDK2/Cyclin A2_FP Kit, IMAP fluorescence polarization); assay type: biochemical
T1 construct: purchased Carna Biosciences, Inc. QS S Assist CDK2/Cyclin A2_FP Kit
Procedure, shortened: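 Kinase activity read as fluorescence polarization (485/535 nm) after phosphorylated fluorescent substrate binds IMAP reagent (30 min, RT, dark). Enzyme (2.5 ng/well) reacted 60 min at RT with ATP/substrate/metal in HEPES pH 7.4 buffer with Tween 20 and DTT; no-enzyme wells define 0% activity; IC50 by curve fit.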

CDK4/cyclin D3 = target: T2, CDK4/cyclin D3 (Homo sapiens, UniProt P11802); test: Human CDK4/cyclin D3 inhibitory activity (QS S Assist CDK4/Cyclin D3_FP Kit, IMAP fluorescence polarization); assay type: biochemical
T2 construct: purchased Carna Biosciences, Inc. QS S Assist CDK4/Cyclin D3_FP Kit
Procedure, shortened: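 IMAP fluorescence polarization kit: CDK4/cyclin D3 at 12.5-25 ng/well with kit ATP/substrate/metal mix in 20 mM HEPES pH 7.4, 0.01% Tween20, 2 mM DTT, 45 min at room temperature. FP read at 485/535 nm after 30 min binding; IC50 from dose-response fit of percent inhibition versus enzyme and no-enzyme controls.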

[1] = Human CDK2/cyclin A2 inhibitory activity, read-out: CDK2 Activity symbol
[2] = Human CDK4/cyclin D3 inhibitory activity, read-out: CDK4 Activity symbol
[3] = 50% inhibitory concentration against CDK2/cyclin A2, given as class symbol
[4] = 50% inhibitory concentration against CDK4/cyclin D3, given as class symbol

T2 sequence (P11802 whole entry): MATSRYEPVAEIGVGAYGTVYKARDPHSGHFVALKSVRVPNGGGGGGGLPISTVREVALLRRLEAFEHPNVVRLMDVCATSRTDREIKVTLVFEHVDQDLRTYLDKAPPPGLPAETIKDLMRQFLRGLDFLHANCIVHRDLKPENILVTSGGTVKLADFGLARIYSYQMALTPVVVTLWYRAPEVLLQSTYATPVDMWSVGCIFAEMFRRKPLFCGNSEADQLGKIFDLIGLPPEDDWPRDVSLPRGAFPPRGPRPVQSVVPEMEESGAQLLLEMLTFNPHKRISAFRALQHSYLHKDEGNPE
T2 sequence (P30281 whole entry partner): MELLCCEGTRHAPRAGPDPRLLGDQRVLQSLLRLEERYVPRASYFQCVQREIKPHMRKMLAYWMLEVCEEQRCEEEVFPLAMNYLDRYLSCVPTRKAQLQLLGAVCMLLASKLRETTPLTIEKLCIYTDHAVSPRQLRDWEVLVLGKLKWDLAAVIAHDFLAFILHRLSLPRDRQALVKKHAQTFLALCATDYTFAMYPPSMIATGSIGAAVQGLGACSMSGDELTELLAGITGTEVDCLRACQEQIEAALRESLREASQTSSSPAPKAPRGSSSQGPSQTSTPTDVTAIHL

`C[C@@H](O)c1cc2cnc(Nc3ccc(OCCN(C)C)cn3)nc2c(NC2CCC(C)(C)OC2)n1` (some centres unmarked) [Compound 600] gave an IC50 (CDK2/cyclin A2; [1]) of at least 100 nM and an IC50 (CDK4/cyclin D3; [2]) of under 10 nM.

`CNC1(C)CCN(c2ccc(Nc3ncc4cc([C@@H](C)O)nc(NC(C)C)c4n3)nn2)CC1` [Compound 601] was tested, and the IC50 (CDK2/cyclin A2; [1]) was at least 100 nM and the IC50 (CDK4/cyclin D3; [2]) was under 10 nM.

`CC(C)Nc1nc([C@@H](C)O)cc2cnc(Nc3ccc(N4CCN(C5CCC5)CC4)nn3)nc12` [Compound 602] was tested, and the IC50 (CDK2/cyclin A2; [1]) was at least 100 nM and the IC50 (CDK4/cyclin D3; [2]) was under 10 nM.

`CC(C)Nc1nc([C@@H](C)O)cc2cnc(Nc3ccc(N4CCN(C(C)(C)C)CC4)nn3)nc12` [Compound 604] was tested, and the IC50 (CDK2/cyclin A2; [1]) was at least 100 nM and the IC50 (CDK4/cyclin D3; [2]) was under 10 nM.

With `CC(C)Nc1nc([C@@H](C)O)cc2cnc(Nc3ccc(N4CCC(N)CC4=O)cn3)nc12` (some centres unmarked) [Compound 605] the IC50 (CDK2/cyclin A2; [1]) was 10 to 100 nM and the IC50 (CDK4/cyclin D3; [2]) was under 10 nM.

`CNC1CC2(C1)CN(c1ccc(Nc3ncc4cc([C@@H](C)O)nc(NC(C)C)c4n3)nn1)C2` [Compound 606] showed an IC50 (CDK2/cyclin A2; [1]) of at least 100 nM and an IC50 (CDK4/cyclin D3; [2]) of under 10 nM.

Work on `CC(C)Nc1nc(C(C)O)cc2cnc(Nc3ccc(N4CCC(O)C(F)C4)nn3)nc12` (centres unmarked) [Compound 608] yielded an IC50 (CDK2/cyclin A2; [1]) of at least 100 nM and an IC50 (CDK4/cyclin D3; [2]) of under 10 nM.

In the case of `CNC1CCN(c2ccc(Nc3ncc4cc(C(C)O)nc(NC(C)C)c4n3)nn2)CC1F` (centres unmarked) [Compound 609], the IC50 (CDK2/cyclin A2; [1]) is reported as at least 100 nM and the IC50 (CDK4/cyclin D3; [2]) is reported as under 10 nM.

For `CNC1CCN(c2ccc(Nc3ncc4cc(C(C)O)nc(NC(C)C)c4n3)nn2)CC1F` (centres unmarked) [Compound 610], the IC50 (CDK2/cyclin A2; [1]) was at least 100 nM and the IC50 (CDK4/cyclin D3; [2]) was under 10 nM.

Compound `CC(C)Nc1nc([C@@H](C)O)cc2cnc(Nc3ccc(N4CC5(CC(N(C)C)C5)C4)nn3)nc12` [Compound 611] has an IC50 (CDK2/cyclin A2; [1]) of at least 100 nM and an IC50 (CDK4/cyclin D3; [2]) of under 10 nM.

Compound `C[C@@H](O)c1cc2cnc(Nc3ccc(N4CCNCC4=O)cn3)nc2c(N[C@H]2CC[C@H](C)CC2)n1` [Compound 612] has an IC50 (CDK2/cyclin A2; [1]) of 10 to 100 nM and an IC50 (CDK4/cyclin D3; [2]) of under 10 nM.

`CC(C)Nc1nc([C@@H](C)O)cc2cnc(Nc3ccc(SCCN(C)C)nn3)nc12` [Compound 614] gave an IC50 (CDK2/cyclin A2; [1]) of at least 100 nM and an IC50 (CDK4/cyclin D3; [2]) of under 10 nM.

Compound `CC(C)Nc1nc([C@@H](C)O)cc2cnc(Nc3ccc(CC(=O)N4CCN(C(C)C)CC4)cn3)nc12` [Compound 615] has an IC50 (CDK2/cyclin A2; [1]) of at least 100 nM and an IC50 (CDK4/cyclin D3; [2]) of under 10 nM.

With `CC(C)Nc1nc(C(C)O)cc2cnc(Nc3ccc(N4CCC(N)C(F)C4)nn3)nc12` (centres unmarked) [Compound 618] the IC50 (CDK2/cyclin A2; [1]) was at least 100 nM and the IC50 (CDK4/cyclin D3; [2]) was under 10 nM.

In the case of `CC(C)Nc1nc(C(C)O)cc2cnc(Nc3ccc(N4CCC(N)C(F)C4)nn3)nc12` (centres unmarked) [Compound 619], the IC50 (CDK2/cyclin A2; [1]) is reported as at least 100 nM and the IC50 (CDK4/cyclin D3; [2]) is reported as under 10 nM.

`CC(C)Nc1nc(C(C)O)cc2cnc(Nc3ccc(N4CCC(N(C)C)C(F)C4)nn3)nc12` (centres unmarked) [Compound 621] was tested, and the IC50 (CDK2/cyclin A2; [1]) was at least 100 nM and the IC50 (CDK4/cyclin D3; [2]) was under 10 nM.

With `CC(C)Nc1nc(C(C)O)cc2cnc(Nc3ccc(N4CCC(N(C)C)C(F)C4)nn3)nc12` (centres unmarked) [Compound 622] the IC50 (CDK2/cyclin A2; [1]) was at least 100 nM and the IC50 (CDK4/cyclin D3; [2]) was under 10 nM.

Work on `CC(C)Nc1nc([C@@H](C)O)cc2cnc(Nc3ccc(N4C(=O)CN5CCC4CC5)cn3)nc12` [Compound 623] yielded an IC50 (CDK2/cyclin A2; [1]) of 10 to 100 nM and an IC50 (CDK4/cyclin D3; [2]) of under 10 nM.

`C[C@@H](O)c1cc2cnc(Nc3ccc(N4CCNCC4=O)cn3)nc2c(N[C@H]2CC[C@@H](C)CC2)n1` [Compound 624] was tested, and the IC50 (CDK2/cyclin A2; [1]) was at least 100 nM and the IC50 (CDK4/cyclin D3; [2]) was under 10 nM.

`CC(C)Nc1nc([C@@H](C)O)cc2cnc(Nc3ccc(N4CCN(CC(C)(C)O)CC4)nn3)nc12` [Compound 625] showed an IC50 (CDK2/cyclin A2; [1]) of at least 100 nM and an IC50 (CDK4/cyclin D3; [2]) of under 10 nM.

With `CC(C)Nc1nc([C@@H](C)O)cc2cnc(Nc3ccc(CN4CCN(CC(C)(C)O)CC4)cn3)nc12` [Compound 626] the IC50 (CDK2/cyclin A2; [1]) was at least 100 nM and the IC50 (CDK4/cyclin D3; [2]) was under 10 nM.

`CC(C)Nc1nc([C@@H](C)O)cc2cnc(Nc3ccc(N4CCN(CC(C)(C)O)CC4=O)cn3)nc12` [Compound 627] was tested, and the IC50 (CDK2/cyclin A2; [3]) was at least 100 nM and the IC50 (CDK4/cyclin D3; [4]) was under 10 nM.

Work on `COC1CCC(Nc2nc([C@@H](C)O)cc3cnc(Nc4ccc(OCCN(C)C)cn4)nc23)CC1` (some centres unmarked) [Compound 628] yielded an IC50 (CDK2/cyclin A2; [3]) of at least 100 nM and an IC50 (CDK4/cyclin D3; [4]) of under 10 nM.

For `C[C@@H](O)c1cc2cnc(Nc3ccc(OCCN(C)C)cn3)nc2c(N[C@H]2CCCOC2)n1` [Compound 629], the IC50 (CDK2/cyclin A2; [3]) was at least 100 nM and the IC50 (CDK4/cyclin D3; [4]) was under 10 nM.

Work on `CC(C)Nc1nc([C@@H](C)O)cc2cnc(Nc3ccc(N4CCCC5(CCCN5)C4=O)cn3)nc12` (some centres unmarked) [Compound 630] yielded an IC50 (CDK2/cyclin A2; [3]) of at least 100 nM and an IC50 (CDK4/cyclin D3; [4]) of under 10 nM.
